Experiment: Transdermal hydrogen sulfide on forearm after N-acetyl cysteine, Interscan Halimeter PLUS
Format: in vivo, human
Conditions: 600 mg oral; for Transdermal Hydrogen Sulfide H2S: adult male, forearm
Procedure: We hypothesized that formula 2 sustained a higher level of bioavailable NO than formula 1 because N-acetyl cysteine generates hydrogen sulfide in the body. To test this hypothesis, we measured transdermal hydrogen sulfide on the surface of the forearm after an adult subject ingested 600 mg of N-acetyl cysteine. The test was performed using Interscan Halimeter® PLUS with a simple modification of sample collection method. Hydrogen sulfide, the primary volatile sulfur compounds detectable by the device, was measured in triplicate for 6 hours after dosing with N-acetyl cysteine (Table IV). […] The data support a mechanism wherein N-acetyl cysteine increases hydrogen sulfide production that boosts NO availability and activity in the body.

In the case of `CC(=O)N[C@@H](CS)C(=O)O` [N-acetyl cysteine], the “Transdermal Hydrogen Sulfide H2S” value (0 h) is reported as 16 ppb, the “Transdermal Hydrogen Sulfide H2S” value (2 h) is reported as 27 ppb and the “Transdermal Hydrogen Sulfide H2S” value (3 h) is reported as 46 ppb. For the same compound, the “Transdermal Hydrogen Sulfide H2S” value (4 h) was 51 ppb, the “Transdermal Hydrogen Sulfide H2S” value (5 h) was 40 ppb and the “Transdermal Hydrogen Sulfide H2S” value (6 h) was 16 ppb. The transdermal hydrogen sulfide (peak at 4 hours) was 51 ppb, the transdermal hydrogen sulfide (starting value) was 16 ppb and the transdermal hydrogen sulfide (within 2 hours) was 27 ppb.
